One assay deals with FGFR1 (Homo sapiens, UniProt P11362). Briefly: Mobility shift assay, FGFR1 kinase inhibition.
The target in the next assay is FGFR2 (Homo sapiens, UniProt P21802). The experiment in a line: Mobility shift assay, FGFR2 kinase inhibition.
The next assay deals with FGFR3 (Homo sapiens, UniProt P22607). Briefly: Mobility shift assay, FGFR3 kinase inhibition.
The target in the next assay is FGFR4 (Homo sapiens, UniProt P22455). The experiment in a line: Mobility shift assay, FGFR4 kinase inhibition.
For assay [1], the system named is colon cancer cells HCT-116. The experiment in a line: MTT proliferation assay on colon cancer cells HCT-116. Type of assay: cell-based. Particulars: 3-100 µM, 72 h, dose-dependent, FIG. 4. How it is done:
(§1) An MTT method was used for determination. An experimental method is briefly described as follows. A test compound 23 was first dissolved in DMSO to prepare a stock solution, and then the stock solution was subjected to gradient dilution with a corresponding cell culture medium to prepare a test sample, where a final concentration of the compound was in the range of 3-100 uM. Cells in a logarithmic culture stage were inoculated into a 96-well cell culture plate at an appropriate density, cultured overnight under corresponding conditions, and then continuously cultured for 72 h after the test compound sample was added. After the culture was completed, an appropriate volume of an MTT detection solution was added to each well, incubation was performed at 37°C for 1-4 h, and the culture medium was carefully discarded. […].

Another assay concerns colon cancer cells RKO. Briefly: MTT proliferation assay on colon cancer cells RKO. Particulars: 3-100 µM, 72 h, dose-dependent, FIG. 6. The assay is classed as cell-based. The method, then: as §1
The next assay has as its system colon cancer cells SW480. The experiment in a line: MTT proliferation assay on colon cancer cells SW480. Type of assay: cell-based. Particulars: 3-100 µM, 72 h, dose-dependent, FIG. 5. The method, then: as §1

Each structure is given as a SMILES string. pIC50: −log10 of the molar value. Where two headings read alike, the source gives them in different places. A value given as a limit tells only on which side of the number the result lay.

Sequence of FGFR4 (P22455 22-802): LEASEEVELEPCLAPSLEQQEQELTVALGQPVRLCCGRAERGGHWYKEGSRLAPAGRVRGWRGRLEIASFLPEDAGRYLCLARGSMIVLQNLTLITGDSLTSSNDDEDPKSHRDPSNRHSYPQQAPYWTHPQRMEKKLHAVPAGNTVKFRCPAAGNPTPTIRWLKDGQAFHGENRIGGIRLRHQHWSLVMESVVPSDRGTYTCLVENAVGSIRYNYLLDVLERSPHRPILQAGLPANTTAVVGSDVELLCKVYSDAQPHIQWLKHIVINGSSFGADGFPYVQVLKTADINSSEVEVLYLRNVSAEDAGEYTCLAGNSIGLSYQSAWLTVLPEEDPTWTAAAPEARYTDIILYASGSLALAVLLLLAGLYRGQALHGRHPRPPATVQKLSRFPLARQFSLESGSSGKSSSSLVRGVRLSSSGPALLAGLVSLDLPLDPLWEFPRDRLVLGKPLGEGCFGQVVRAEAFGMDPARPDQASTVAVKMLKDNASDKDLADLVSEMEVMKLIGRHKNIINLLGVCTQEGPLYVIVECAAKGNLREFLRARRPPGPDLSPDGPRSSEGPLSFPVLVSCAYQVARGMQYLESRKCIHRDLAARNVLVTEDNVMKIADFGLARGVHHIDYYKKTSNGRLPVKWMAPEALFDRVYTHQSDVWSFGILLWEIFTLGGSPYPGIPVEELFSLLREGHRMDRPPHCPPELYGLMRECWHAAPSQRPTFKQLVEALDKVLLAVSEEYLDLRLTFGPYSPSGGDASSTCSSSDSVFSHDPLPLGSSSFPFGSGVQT
Sequence of FGFR1 (P11362 22-822): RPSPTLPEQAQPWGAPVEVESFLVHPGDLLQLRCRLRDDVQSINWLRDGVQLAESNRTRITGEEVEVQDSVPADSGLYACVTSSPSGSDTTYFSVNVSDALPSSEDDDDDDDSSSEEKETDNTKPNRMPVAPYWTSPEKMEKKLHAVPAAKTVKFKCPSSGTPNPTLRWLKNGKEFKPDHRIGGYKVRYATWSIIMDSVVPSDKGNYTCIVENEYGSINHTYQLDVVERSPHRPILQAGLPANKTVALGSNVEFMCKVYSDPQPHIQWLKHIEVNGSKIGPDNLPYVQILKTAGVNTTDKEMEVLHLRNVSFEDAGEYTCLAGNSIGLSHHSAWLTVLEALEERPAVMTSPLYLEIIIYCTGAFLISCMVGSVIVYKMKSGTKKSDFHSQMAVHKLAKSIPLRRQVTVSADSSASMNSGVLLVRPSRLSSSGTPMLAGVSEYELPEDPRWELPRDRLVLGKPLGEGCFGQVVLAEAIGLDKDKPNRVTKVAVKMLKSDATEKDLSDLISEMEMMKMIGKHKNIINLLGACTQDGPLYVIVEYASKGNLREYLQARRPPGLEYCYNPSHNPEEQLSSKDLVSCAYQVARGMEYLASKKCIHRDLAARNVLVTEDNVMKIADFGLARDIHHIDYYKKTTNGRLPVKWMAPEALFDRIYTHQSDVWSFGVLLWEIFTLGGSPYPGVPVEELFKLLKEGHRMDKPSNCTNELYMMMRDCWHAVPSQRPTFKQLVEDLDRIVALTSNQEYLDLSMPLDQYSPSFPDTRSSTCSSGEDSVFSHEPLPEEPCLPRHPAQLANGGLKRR
Sequence of FGFR2 (P21802 22-821): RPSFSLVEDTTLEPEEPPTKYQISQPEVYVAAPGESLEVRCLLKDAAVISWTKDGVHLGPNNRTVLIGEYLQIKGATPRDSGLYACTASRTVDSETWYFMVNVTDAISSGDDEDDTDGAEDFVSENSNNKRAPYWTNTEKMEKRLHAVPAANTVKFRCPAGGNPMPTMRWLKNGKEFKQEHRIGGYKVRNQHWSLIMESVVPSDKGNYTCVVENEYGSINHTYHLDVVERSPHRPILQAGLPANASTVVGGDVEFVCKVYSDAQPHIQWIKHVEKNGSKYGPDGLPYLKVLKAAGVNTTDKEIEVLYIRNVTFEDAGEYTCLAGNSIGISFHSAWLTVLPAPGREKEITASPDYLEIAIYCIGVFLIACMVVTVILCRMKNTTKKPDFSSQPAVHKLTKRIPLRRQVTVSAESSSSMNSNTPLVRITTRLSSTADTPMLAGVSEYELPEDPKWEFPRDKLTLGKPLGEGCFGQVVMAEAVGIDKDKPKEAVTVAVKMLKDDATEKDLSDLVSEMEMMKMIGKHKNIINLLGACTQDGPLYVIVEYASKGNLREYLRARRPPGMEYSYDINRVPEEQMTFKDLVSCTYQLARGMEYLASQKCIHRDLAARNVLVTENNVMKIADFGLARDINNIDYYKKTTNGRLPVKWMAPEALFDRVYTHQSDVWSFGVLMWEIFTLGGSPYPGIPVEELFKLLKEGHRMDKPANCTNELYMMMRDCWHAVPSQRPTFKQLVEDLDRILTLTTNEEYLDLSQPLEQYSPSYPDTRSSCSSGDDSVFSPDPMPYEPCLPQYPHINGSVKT
Sequence of FGFR3 (P22607 23-806): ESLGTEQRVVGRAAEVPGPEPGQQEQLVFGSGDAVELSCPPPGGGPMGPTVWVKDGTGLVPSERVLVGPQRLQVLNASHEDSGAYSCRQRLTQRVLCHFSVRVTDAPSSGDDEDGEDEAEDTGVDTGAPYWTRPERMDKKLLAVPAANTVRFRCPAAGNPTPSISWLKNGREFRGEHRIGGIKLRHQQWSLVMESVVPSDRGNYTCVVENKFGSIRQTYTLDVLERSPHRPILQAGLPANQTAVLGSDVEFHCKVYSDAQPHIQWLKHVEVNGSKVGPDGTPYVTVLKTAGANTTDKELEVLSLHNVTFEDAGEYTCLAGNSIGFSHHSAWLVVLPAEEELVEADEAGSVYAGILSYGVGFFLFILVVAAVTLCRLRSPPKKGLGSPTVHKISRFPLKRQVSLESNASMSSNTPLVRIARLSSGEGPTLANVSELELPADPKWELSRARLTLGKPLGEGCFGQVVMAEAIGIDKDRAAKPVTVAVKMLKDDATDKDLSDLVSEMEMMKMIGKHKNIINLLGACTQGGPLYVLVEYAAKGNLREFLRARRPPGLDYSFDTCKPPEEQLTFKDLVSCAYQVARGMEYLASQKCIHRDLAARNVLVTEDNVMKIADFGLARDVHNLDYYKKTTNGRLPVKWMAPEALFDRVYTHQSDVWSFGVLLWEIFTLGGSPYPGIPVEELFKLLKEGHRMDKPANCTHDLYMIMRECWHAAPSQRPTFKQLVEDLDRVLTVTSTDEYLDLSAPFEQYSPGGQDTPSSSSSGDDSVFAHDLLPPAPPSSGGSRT
Protocol for FGFR1: (§2) A specific experimental method is as follows.
(§3) (1) A 1×Kinase buffer was prepared. […] (3) A kinase solution with a 2.5 times final concentration was prepared with the 1×Kinase buffer. (4) 10 µL of the kinase solution with a 2.5 times final concentration was added to compound holes and positive control holes, respectively; and 10 µL of the 1×Kinase buffer was added to negative control holes. (5) Centrifugation was performed at 1,000 rpm for 30 s, the reaction plate was shaken for even mixing, and incubation was performed at room temperature for 60 min. (6) A mixed solution, with a 25/15 times final concentration, of ATP and Kinase substrate22 was prepared with the 1×Kinase buffer. (7) 15 µL of a mixed solution, with a 5/3 times final concentration, of ATP and a substrate was added to carry out an initial reaction. (8) A 384-well plate was centrifuged at 1,000 rpm for 30 s and shaken for even mixing, and incubation was performed at room temperature for 30 min. (9) 30 µL of a terminal detection solution was added to stop a kinase reaction, centrifugation was performed at 1,000 rpm for 30 s, and shaking was performed for even mixing. (10) A conversion rate was read with Caliper EZ Reader.
(§4) A dose-effect curve is fitted as follows.
(§5) With a concentration log value as an X axis and an inhibition rate percentage as a Y axis, the dose-effect curve was fitted by log (inhibitor) vs. response-Variable slope of analysis software GraphPad Prism 5, so as to obtain an IC50 value of each compound on enzyme activity. A calculation formula is: Y=Bottom+(Top-Bottom)/(1+10^((LogIC50-X)*HillSlope)).
Protocol for FGFR2: as §2, §3, §4, §5
Protocol for FGFR3: as §2, §3, §4, §5
Protocol for FGFR4: as §2, §3, §4, §5

As for `C=CC(=O)Nc1cccc(C)c1Nc1ncc2cc(-c3c(Cl)c(OC)cc(OC)c3Cl)ccc2n1` [BLU9931, reference compound], the IC50 (commonly the concentration needed to halve the response being measured) at FGFR1 (read-out: IC50 (nM) FGFR1, Mobility shift assay) was 582 nM. Also, the pIC50 (usually the negative decadic logarithm of the IC50, by convention in mol/L) on FGFR2 was 6.36; on FGFR3, 6.71.

As to `C=CC(=O)Nc1cccc(C)c1Nc1cc2c(cn1)cc(-c1cc(OC)cc(OC)c1)c(=O)n2CCCN1CCCCC1` [Compound 22, N-(2-((3-(3,5-dimethoxyphenyl)-2-oxo-1-(3-(piperidin-1-yl)propyl)-1,2-dihydro-1,6-naphthyridin-7-yl)amino)-3-methylphenyl)acrylamide], the pIC50 at FGFR1 was below 5.30; on FGFR2, below 5.30; at FGFR4, 8.01; on FGFR3, below 5.30.

As for `C=CC(=O)Nc1cccc(C)c1Nc1cc2c(cn1)cc(-c1c(Cl)c(OC)cc(OC)c1Cl)c(=O)n2CCCN1CCCCC1` [Compound 23, N-(2-((3-(2,6-dichloro-3,5-dimethoxyphenyl)-2-oxo-1-(3-(piperidin-1-yl)propyl)-1,2-2H-1,6-naphthyridin-7-yl)amino)-3-methylphenyl)acrylamide], the “inhibition of proliferation of colon cancer cells HCT-116” value in assay [1] is “can inhibit proliferation”. In addition, the pIC50 at FGFR1 is below 5.30; on FGFR2, below 5.30; at FGFR4, 8.43; at FGFR3, below 5.30. In the assay on colon cancer cells RKO, the “inhibition of proliferation of colon cancer cells RKO” value was “can inhibit proliferation”. Further, the “inhibition of proliferation of colon cancer cells SW480” value in the assay with colon cancer cells SW480 is given as “can inhibit proliferation”.

Take `C=CC(=O)Nc1cccc(C)c1Nc1cc2c(cn1)cc(-c1cc(OC)cc(OC)c1)c(=O)n2CCCN1CCN(C)CC1` [Compound 24, N-(2-((3-(3,5-dimethoxyphenyl)-2-oxo-1-(3-(4-methylpiperazin-1-yl)propyl)-1,2-dihydro-1,6-naphthyridin-7-yl)amino)-3-methylphenyl)acrylamide]: the pIC50 on FGFR1 is below 5.30; on FGFR2 it was below 5.30; on FGFR4, 7.46; at FGFR3, below 5.30.

As to `C=CC(=O)Nc1cccc(C)c1Nc1cc2c(cn1)cc(-c1c(Cl)c(OC)cc(OC)c1Cl)c(=O)n2CCCN1CCN(C)CC1` [Compound 25, N-(2-((3-(2,6-dichloro-3,5-dimethoxyphenyl)-2-oxo-1-(3-(4-methylpiperazin-1-yl)propyl)-1,2-2H-1,6-naphthyridin-7-yl)amino)-3-methylphenyl)acrylamide], the pIC50 was below 5.30 at FGFR1, below 5.30 at FGFR2, 8.24 on FGFR4 and below 5.30 at FGFR3.

In the case of `C=CC(=O)Nc1cccc(C)c1Nc1cc2c(cn1)cc(-c1cc(OC)cc(OC)c1)c(=O)n2CCCN1CCOCC1` [Compound 26, N-(2-((3-(3,5-dimethoxyphenyl)-1-(3-morpholinopropyl)-2-oxo-1,2-dihydro-1,6-naphthyridin-7-yl)amino)-3-methylphenyl)acrylamide], the pIC50 on FGFR1, at FGFR2 and at FGFR3 was below 5.30 throughout.

For `C=CC(=O)Nc1cccc(C)c1Nc1cc2c(cn1)cc(-c1c(Cl)c(OC)cc(OC)c1Cl)c(=O)n2CCCN1CCOCC1` [Compound 27, N-(2-((3-(2,6-dichloro-3,5-dimethoxyphenyl)-1-(3-morpholinopropyl)-2-oxo-1,2-2H-1,6-naphthyridin-7-yl)amino)-3-methylphenyl)acrylamide], the pIC50 on FGFR1 was below 5.30; at FGFR2 it was below 5.30; on FGFR4 it was 8.36; on FGFR3, below 5.30.

Take `C=CC(=O)Nc1cccc(C)c1Nc1cc2c(cn1)cc(-c1cc(OC)cc(OC)c1)c(=O)n2CCCO` [Compound 29]: the pIC50 was below 5.30 on FGFR1, below 5.30 at FGFR2, 7.50 at FGFR4 and below 5.30 on FGFR3.

Turning to `C=CC(=O)Nc1cccc(C)c1Nc1cc2c(cn1)cc(-c1c(Cl)c(OC)cc(OC)c1Cl)c(=O)n2CCCO` [Compound 30, N-(2-((3-(2,6-dichloro-3,5-dimethoxyphenyl)-1-(3-hydroxypropyl)-2-oxo-1,2-2H-1,6-naphthyridin-7-yl)amino)-3-methylphenyl)acrylamide], the pIC50 at FGFR1, on FGFR2 and on FGFR3 was below 5.30 in each case.

The record behind these values is EP4393921B1, “NALIDINONE COMPOUND AS FGFR4 INHIBITOR AND USE THEREOF” (Wenzhou Medical University, priority 2021, dated 2023).
